Reference: article PMC9775191, “A Subset Screen of the Compounds Australia Scaffold Library Identifies 7-Acylaminodibenzoxazepinones as Potent and Selective Hits for Anti-Giardia Drug Discovery” (Biomedicines, 2022)

System: G. duodenalis BRIS/91/HEPU/1279
Test: Primary Giardia screen at 10 µM (live-cell imaging, automated counting)
Format: cell-based, Giardia duodenalis
Conditions: 24 h
In short: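 Compound added to 10 μM final in medium with 0.2% DMSO, one well each; plates then held in sealed chambers at 3% O2, 5% CO2 in N2; growth imaged and counted automatically at 24 and 48 h; values normalised to vehicle wells minus media blank.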

`CCN(CC)S(=O)(=O)c1ccc(Nc2ccn(CCc3ccccn3)n2)c([N+](=O)[O-])c1` [SN00777378] was tested, and the “Average % Inhibition 24h” value was 10.7%.

Same assay, conditions: 24 h, first singlicate assay

For `CCN(CC)S(=O)(=O)c1ccc(Nc2ccn(CCc3ccccn3)n2)c([N+](=O)[O-])c1` [SN00777378], the “% Inhibition n=1 24h” value was 21.3%.

Same assay, conditions: 24 h, re-assessment

With `CCN(CC)S(=O)(=O)c1ccc(Nc2ccn(CCc3ccccn3)n2)c([N+](=O)[O-])c1` [SN00777378] the “% Inhibition n=2 24h” value was 0.0%.

Same assay, conditions: 48 h

In the case of `CCN(CC)S(=O)(=O)c1ccc(Nc2ccn(CCc3ccccn3)n2)c([N+](=O)[O-])c1` [SN00777378], the “Average % Inhibition 48h” value is reported as 25.2%.

Same assay, conditions: 48 h, first singlicate assay

In order of falling “% Inhibition n=1 48h” value:
1. O=c1n(Cc2ccc(F)cc2)nnn1-c1ccccc1 [SN00777772]  48.5%
2. COc1ccc(-c2cc(C(=O)N(C)Cc3ccco3)[nH]n2)cc1 [SN00788220]  44.3%
3. COc1ccccc1CN1CCN(c2cc(C(=O)O)c3cc(NC(C)=O)ccc3n2)CC1 [SN00790290]  39.8%
4. CCN(CC)S(=O)(=O)c1ccc(Nc2ccn(CCc3ccccn3)n2)c([N+](=O)[O-])c1 [SN00777378]  39.2%
5. CCOc1cccc(CC(=O)Nc2ccc3c(c2)C(=O)N(C)C2=NCCN23)c1OCC [SN00789358]  35.6%
6. CCn1cc(C2OCCC2CNC/C=C/c2ccccc2OC)cn1 (centres unmarked) [SN00782244]  28.6%
7. O=S(=O)(NCCC1=CCCCC1)c1ccc(-c2cnc(C3CCCC3)o2)s1 [SN00795100]  27.9%
8. Cc1csc(-c2ccc(CNC(=O)c3n[nH]c4ccccc34)cc2)n1 [SN00799624]  25.2%
9. Cc1oc(-c2ccccc2)nc1C(=O)N1CCN(S(=O)(=O)c2ccc(Br)s2)CC1 [SN00769595]  23.5%
10. O=C(Cn1c(-c2ccccn2)noc1=O)C12CC3CC(CC(C3)C1)C2 [SN00781381]  21.7%
11. O=C(Cn1c(=O)c(=O)n(Cc2ccccc2)c2ccccc21)NCCCN1CCCC1 [SN00792985]  20.3%
12. O=C1CCCc2cc(S(=O)(=O)N3CCN(c4ccccc4)CC3)ccc2N1 [SN00788529]  19.1%
13. O=C(c1ccco1)N1CCC(OCc2nc(-c3ccncc3)no2)CC1 [SN00801147]  18.6%
14. O=C(Cc1ccccc1F)N1CCC(Nc2cccnc2)C1 (centres unmarked) [SN00801060]  18.5%
15. Cc1cc2n(CC(O)COc3ccccc3F)c(=O)c3ccccc3n2n1 (centres unmarked) [SN00770617]  17.7%
16. COc1ccc(N2C(=O)c3cc(-c4ccco4)nn3CC2(C)C(=O)NC(C)(C)C)cc1 (centres unmarked) [SN00787372]  16.8%
17. CCCn1nnc(NCc2ccc(OCc3ccccc3)cc2)n1 [SN00794214]  16.1%
18. CCCNC(=O)[C@@H]1[C@@H]2C=C[C@@]3(CN(Cc4ccccc4Cl)C(=O)[C@H]13)O2 (relative stereo) [SN00784246]  16.0%
19. O=S(=O)(Cc1ccc(Cl)cc1)c1nc2ccccc2nc1N1CCC2(CC1)OCCO2 [SN00794883]  15.2%
20. COCCN1CCN(c2nc(-c3ccncc3)nc3c2CCC3)CC1 [SN00781610]  15.0%
21. COc1ccc(S(=O)(=O)N2CCN(C(=O)c3cc(C)n(C(C)C)c3C)CC2)cc1OC [SN00774751]  14.4%
22. Cc1noc(-c2nn(C)c3c2CN(S(=O)(=O)Cc2cccc(F)c2)CC3)n1 [SN00796798]  14.3%
23. O=C(c1cccc(Br)c1)N1CCc2nc(-c3ccc(F)cc3)ncc2C1 [SN00799013]  13.8%
24. Cn1cc(C(=O)N2CCCC2C2CCCCC2)ccc1=O (centres unmarked) [SN00779264]  13.1%
25. COc1ccc(CNC(=O)c2sc(Nc3ccc(F)cn3)nc2C)cc1 [SN00797617]  12.4%
26. COc1ccc(-c2nc(CS(=O)(=O)c3ccc(C)cc3)no2)c(C)c1 [SN00798481]  11.0%
27. COc1ccc(OC)c(CNC(=O)c2ccc(N3CCOc4ccccc43)s2)c1 [SN00791505]  9.9%
28. Cc1ncc(C(=O)NC2C3CCCOC3C2(C)C)s1 (centres unmarked) [SN00782098]  9.0%
29. Cc1ccc(S(=O)(=O)N2CCN(C)c3ccccc32)cc1 [SN00795395]  8.6%
30. Cc1cc(C)n2nc(C(=O)N3CCCC(n4cncn4)C3)nc2n1 (centres unmarked) [SN00775270]  8.1%
31. Cc1ccc(-c2noc(-c3ccc(N4CCN(Cc5ccc6c(c5)OCO6)CC4)nc3)n2)cc1 [SN00796635]  7.2%
32. COc1ccc(OCC(=O)N2CCN(Cc3ccc(C)cc3)c3ncccc32)cc1 [SN00790421]  6.7%
33. CCc1onc(C)c1C1CCCN1C(=O)c1ccc2c(c1)OCO2 (centres unmarked) [SN00793852]  6.6%
34. Cc1ccc(CNc2nc(-c3ccco3)nn2C(=O)c2cccc([N+](=O)[O-])c2)cc1 [SN00786222]  6.6%
35. Cc1ccc(NC(=O)CN2CC(c3ccccc3)CC2=O)c(C)c1 (centres unmarked) [SN00784704]  6.2%
36. Cc1cccc(-c2noc(CN3CC(n4cc(C)cn4)C3)n2)c1 [SN00772979]  6.1%
37. O=c1c2c(ncn2Cc2ccc(F)cc2)n(-c2ccccc2)c(=O)n1C1CCCC1 [SN00802718]  6.1%
38. COc1ccc2c(c1)NC1(CCN(C(=O)Cc3ccc(F)cc3)CC1)c1cccn1-2 [SN00789241]  5.9%
39. Cc1ccc(NC(=O)c2ccc(-c3noc(C4CCCN(C(=O)c5ccccc5)C4)n3)cc2)cc1 (centres unmarked) [SN00797407]  5.6%
40. COc1ccc(CNS(=O)(=O)c2c(C)nc3sc(C)nn23)cc1 [SN00799344]  4.3%
41. CC(=O)N1CCc2cc(C)c(S(=O)(=O)NC3CC3)cc21 [SN00798831]  4.3%
42. O=S(=O)(c1ccc(Br)cc1)c1nc(-c2ccccc2)oc1N1CCOCC1 [SN00785745]  4.0%
43. Cc1ccccc1C(=O)N[C@@H]1CCCC[C@H]1NC(=O)C1CCCN(C(=O)c2ccc(Cl)cc2)C1 (some centres unmarked) [SN00802559]  3.9%
44. Cc1ccc(NC(=O)Cn2c(C)cc(C)c(-c3nc(-c4ccc5c(c4)OCO5)no3)c2=O)cc1 [SN00792912]  3.6%
45. C1CNCC2CCCN2C1 (centres unmarked) [SN00781270]  3.1%
46. Cc1ccc(Cn2nnc3c(=O)n(Cc4nc(-c5ccccc5)no4)cnc32)cc1 [SN00790594]  2.1%
47. CCOC(=O)c1ccc(NC(=O)Cn2c(=O)cc(-c3nc(C)no3)c3ccccc32)cc1 [SN00798707]  2.1%
48. COc1ccc(CC(=O)NC2CCN(c3nc4c(s3)c(C)nn4-c3cccc(C)c3)CC2)cc1 [SN00803147]  1.5%
49. CC(=O)N1CCCN(C(=O)c2cc(C3CC3)[nH]n2)CC1 [SN00778148]  1.1%
50. O=C1C2C(c3ccc(F)cc3)NC(Cc3ccccc3)(C(=O)O)C2C(=O)N1c1ccc(F)cc1 (centres unmarked) [SN00784528]  0.7%
51. O=C(C1=C(O)C(=O)N(CCN2CCOCC2)C1c1ccncc1)c1ccccc1 (centres unmarked) [SN00776455]  0.7%
52. Cc1cccc(C)c1NC(=O)Cn1c(=O)n(CCc2c[nH]c3ccccc23)c(=O)c2cccnc21 [SN00785456]  0.5%
53. CC(C)c1ccc(S(=O)(=O)N2CCN(c3cc(=O)n4nc(-c5ccccc5)sc4n3)CC2)cc1 [SN00789595]  0.0%
54. Cc1ccccc1CS(=O)(=O)Cc1ccc(-c2nc(-c3ccc(Br)cc3)no2)o1 [SN00790667]  0.0%
55. Cc1cccc(-c2nc3sc(N4CCN(C(=O)NC(C)C)CC4)nn3c2NC(C)(C)C)c1 [SN00795313]  0.0%
56. Cc1ccc(C(=O)N2CCCC2c2nc(-c3cccc(C)c3)no2)cc1 (centres unmarked) [SN00797416]  0.0%
57. Cc1ccc(-n2nc(N3CCC(C(=O)NCC4CCCO4)CC3)ccc2=O)cc1Cl (centres unmarked) [SN00790174]  0.0%
58. Cn1ncc2c(=O)[nH]c(CN3CCN(c4cnccn4)CC3)nc21 [SN00807797]  0.0%
59. CCN(CC)S(=O)(=O)c1ccc2c(c1)cc(C(=O)NC1CCCC1)n2C [SN00792862]  0.0%
60. CC(C)n1ncc2c(C(=O)N3CCC(NS(=O)(=O)c4cccs4)CC3)cc(C3CC3)nc21 [SN00770479]  0.0%
61. O=C(C1CCC1)N1CCCc2cc(S(=O)(=O)Nc3ccccc3)ccc21 [SN00793348]  0.0%
62. NC1=C(c2nc3ccccc3s2)CC(=O)N1C1CC1 [SN00776353]  0.0%
63. COc1cc(NC(=O)C2CCCN(c3nc4ccccc4[nH]c3=O)C2)cc(OC)c1 (centres unmarked) [SN00790089]  0.0%
64. O=C(CN1C(=O)NC2(CCc3ccccc32)C1=O)N1CCCC(c2nnc3ccccn23)C1 (centres unmarked) [SN00778393]  0.0%
65. O=C(Nc1ccccc1)NC(c1ccccc1)c1nnc(-c2ccccc2Cl)o1 (centres unmarked) [SN00784775]  0.0%
66. Cc1ccc(-c2noc(-c3cccc(S(=O)(=O)N4CCN(c5ccc(F)cc5)CC4)c3)n2)cc1 [SN00797676]  0.0%
67. CC1=NN(C(=O)COc2ccc(C)c(C)c2)C(O)(C(F)(F)F)C1 (centres unmarked) [SN00783577]  0.0%
68. O=C(Cn1c(=O)c2c(ncn2C2CCCC2)n(Cc2ccccc2)c1=O)Nc1cc(Cl)ccc1F [SN00773912]  0.0%
69. O=C(Cc1scnc1-c1cccs1)N1CCN(c2ccccn2)CC1 [SN00786601]  0.0%
70. Cc1ccc(C(=O)N2CCC(Oc3ncccc3C(=O)N3CCCCC3)C2)c(C)c1 (centres unmarked) [SN00800036]  0.0%
71. COc1ccc(-c2nc3sccn3c2Nc2ccc3c(c2)OCO3)cc1 [SN00784546]  0.0%
72. Cc1noc(C)c1S(=O)(=O)N1CCC(C(=O)NCC(c2ccccc2)N(C)C)CC1 (centres unmarked) [SN00775659]  0.0%
73. O=C(Cn1c(-c2cccnc2)noc1=O)NCC1CCCO1 (centres unmarked) [SN00781423]  0.0%
74. CC(NC(=O)Cc1csc(Cc2ccccn2)n1)c1ccc(F)cc1 (centres unmarked) [SN00779507]  0.0%
75. CCc1ncc2c(n1)CN(Cc1nc(-c3ccco3)oc1C)CC2 [SN00783272]  0.0%
76. COCCCN1C(=O)CSc2c(c(C)nn2-c2ccccc2)C1C(=O)NCc1ccccc1OC (centres unmarked) [SN00791374]  0.0%
77. CCc1cccc(NC(=O)C2CCCN(S(=O)(=O)c3c(C)noc3C)C2)c1 (centres unmarked) [SN00784983]  0.0%
78. COc1ccc(Cn2c(=O)c3nccnc3n(Cc3cccc(C)c3)c2=O)cc1 [SN00789526]  0.0%

Same assay, conditions: 48 h, re-assessment

In the case of `CCN(CC)S(=O)(=O)c1ccc(Nc2ccn(CCc3ccccn3)n2)c([N+](=O)[O-])c1` [SN00777378], the “% Inhibition n=2 48h” value is reported as 11.3%.
